Drawing on US12440571B2, “Immune agonists” (SHENZHEN UNIVERSITY, priority 2020, dated 2025), this text covers EC50 and IC50 for 3 compounds.

Each structure is given as a SMILES string. pEC50, pIC50: −log10 of the molar value. Read-outs that look alike come from different tables or passages of the source.

In test [1] the test system is murine spleen lymphocytes. Description: Cytokine stimulation of murine spleen lymphocytes, ELISA. The following applies: Lymphocyte, mouse immune cells (spleen lymphocytes), 24 hrs, ELISA. Type of test: cell-based. As to the method:
The stimulating effect of a series of GY compounds or drugs on murine spleen lymphocytes was detected by ELISA.
6-week-old Balb/c mice were sacrificed by cervical dislocation, spleens were taken under aseptic conditions. A 1 mL sterile syringe and a 200 mesh cell strainer were adopted to quickly grind and disperse the spleen into individual cells in 4 mL of a murine lymphocyte separation solution (Dakko's, 7211011). A resulting cell homogenate was transferred to a 15 mL centrifuge tube, then 1 mL of a RPMI 1640 medium (Hyclone, SH30809.01) was slowly added. Spleen lymphocytes were separated by a density gradient centrifugation method (800×g, 30 min), washed, red blood cells therein were lysed, such that a dispersed spleen lymphocyte suspension was obtained. Cells were counted by a hemocytometer, to calculate the cell concentration. A RPMI 1640 complete medium was adopted to adjust the cell suspension to a concentration of 1×10^6/ml/well, and the cells were then plated on a 24-well cell culture plate (Corning, 3524).
Murine spleen lymphocytes were stimulated according to the gradient concentrations of the series of GY compounds or drugs, and incubated in a 37° C., 5% carbon dioxide incubator for 24 hrs.
• (1) Coating: a Capture antibody (primary antibody, purchased from Invitrogen) was diluted with a 1×Coating Buffer (coating buffer, purchased from Invitrogen) to a recommended concentration, and 100 μL of a resulting diluted solution was added to each well of a 96-well microtiter plate, the plate was sealed with a sealing film at 4° C. overnight. • (2) Washing: a liquid in each well was discarded, then 300 μL of a PBST working solution was added to each well and kept for 1 min, thereafter, the liquid therein was discarded. The washing process was repeated 3 times. • (3) Blocking: 200 μL of a blocking solution was added to each well. The plate was sealed with a sealing film, and placed on a shaker and incubated at room temperature for 1 hr, then washed and patted to be dry. • (4) Sample incubation: a sample was collected and centrifuged to collect a supernatant. Standards, samples, negative controls, and blank controls were provided in the 96-well microtiter plate, and each concentration or sample were provided with 2 replicates. 100 μL of a standard or sample was added to each well, thereafter, the plate was sealed with a sealing film, incubated on a shaker at room temperature for 1 hr or overnight at 4° C., then washed and pated to be dry. • (5) Secondary antibody incubation: the detection antibody (secondary antibody, purchased from Invitrogen) was diluted to a recommended concentration with a dilution buffer, 100 μL of a secondary antibody was added to each well. After being sealed with a sealing film, the plate was incubated on a shaker at room temperature for 1 hr, then washed and patted to be dry. • (6) Avidin-HRP incubation: Avidin-HRP (horseradish peroxidase marker, purchased from Invitrogen) was diluted to the recommended concentration with a dilution buffer, 100 μL of Avidin-HRP was added to each well. After being sealed with a sealing film, the plate was placed on a shaker and incubated at room temperature for 30 mins, washed 5-7 times by the process of step 2), and patted to be dry. • (7) TMB color development: 100 μL of a TMB color development solution (purchased from Invitrogen) was added to each well, for carrying out reaction for 15 mins at room temperature in the dark. • (8) Stopping reaction: 50 μL of 1M H2SO4 solution was added to each well. • (9) Reading an absorbance value by a microplate reader: the OD value at 450 nm wavelength was read. A standard curve and a parameter nonlinear regression equation were drawn, and a sample concentration was calculated according to the obtained formula.
For orientation: An ELISA detects its analyte on a solid surface through an enzyme-linked reagent.

The test system of test [2] is murine colon cancer CT-26 cells. Nature of the test: CCK8 growth inhibition, CT26. Particulars: Mus musculus, CCK8 method, read-out: IC50 of inhibitory activity on tumor cell growth, CT26. The format is cell-based.
Setting [3] is: read-out: IFN-gamma EC50 of cytokine stimulating activity.
The mark [4] stands for this setting: read-out: IL-6 EC50 of cytokine stimulating activity.
The mark [5] stands for this setting: read-out: TNF-alpha EC50 of cytokine stimulating activity.

Turning to `CCCCOc1nc(N)c2nc(O)n(Cc3cn(CCOCCOCCOCCNC(=S)N4CCCC(n5nc(-c6ccc(Oc7ccccc7)cc6)c6c(N)ncnc65)C4)nn3)c2n1` (stereo not drawn) [GY112], the pEC50 (usually the negative decadic logarithm of the EC50, by convention in mol/L) in test [1] (setting [3]) was 5.08; in test [1] (setting [4]) it was 6.50; in test [1] (setting [5]) it was 6.04. The pIC50 (as a rule, the IC50 on a negative log10 scale, so that one unit is a factor of ten) in test [2] is 4.60.

In the case of `CCCCOc1nc(N)c2nc(O)n(Cc3cn(CCOCCOCCOCCNC(=S)Nc4cc(Nc5nccc(-c6cn(C)c7ccccc67)n5)c(OC)cc4N(C)CCN(C)C)nn3)c2n1` [GY127], the figures for the pEC50 in test [1] (setting [3]), in test [1] (setting [4]) and in test [1] (setting [5]) were 6.12, 7.08 and 6.61, respectively. The pIC50 in test [2] is 4.77.

Take `CCCCOc1nc(N)c2nc(O)n(Cc3cn(CCCCN4CCN(CCCNC(=S)N5CCCC(n6nc(-c7ccc(Oc8ccccc8)cc7)c7c(N)ncnc76)C5)CC4)nn3)c2n1` (stereo not drawn) [GY161]: the figures for the negative-log EC50 (pEC50) in test [1] (setting [3]), in test [1] (setting [4]) and in test [1] (setting [5]) were 5.81, 8.22 and 7.96, respectively. Besides, the pIC50 in test [2] is 5.21.
